Drawing on patent publication US8895744B2, “Alfa-carboline inhibitors of NPM-ALK, RET, and Bcr-Abl” (Universita' Degli Studi di Milano-Bicocca, priority 2008, dated 2014), this text covers GI50 and IC50 for three compounds.

For experiment [1], the target named is BaF3 cells transformed with the oncogenic fusion protein bcr-abl (Homo sapiens, UniProt P00519). The experiment is described as follows: Tritiated thymidine uptake cell proliferation assay, BaF3 BCR/ABL. The following applies: 3[H]-thymidine uptake, 72 h; read-out: BaF BCR/ABL IC50. Type of experiment: cell-based. Here is the method:
Inhibition of the Proliferation of Bcr/Abl Positive Cells
(§1) Method: Tritiated Thymidine Uptake Cell Proliferation Assay
(§2) The following procedure was used with parent untransformed BaF3 cells, BaF3 cells transformed with the oncogenic fusion protein bcr-abl, Abl-negative U937 cells, or Bcr-abl positive LAMA-84 cells. The parent untransformed BaF3 cells and Abl-negative U937 cells are used as controls. Cells were seeded in U-bottomed 96-well plates at 10 000 cells/well in a volume of 100 μL in supplemented medium. In the case of the parent untransformed BaF3 cells, the medium was supplemented with IL-3. Serial dilutions of inhibitors were added to the appropriate wells and volumes adjusted to 200 μL. Controls were treated with the equivalent volume of vehicle, DMSO, alone. Plates were incubated at 37° C. for 72 h. ^3[H]-thymidine (1 μCi/well) was added for the last 16 h of incubation. Cells were harvested on to paper filters and ^3[H]-thymidine incorporation was measured using a β scintillation counter (1430 MicroBeta, Wallac, Turku, Finland). The 50% inhibitory concentration (IC50) was defined as the concentration of inhibitor, expressed in micromolar, that gave a 50% decrease in ^3H-thymidine uptake compared with controls.

Experiment [2] deals with parent untransformed BaF3 cells. Kind of experiment: Tritiated thymidine uptake cell proliferation assay, parental BaF3 (control). Type of experiment: cell-based. The following applies: Mus musculus, 3[H]-thymidine uptake, 72 h, medium with IL-3, read-out: BaF parental IC50. The gist of the method:
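Control lines were parental BaF3 in IL-3-supplemented medium and ALK-, Abl- or RET-negative U937, seeded at 10 000 cells/well with serial inhibitor dilutions for 72 h at 37 °C. ³H-thymidine (1 μCi/well) was added for the final 16 h; IC50 (μM) is the concentration halving uptake versus DMSO.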

For experiment [3], the target named is T1, BaF3 cells transformed with the oncogenic fusion protein RET-PTC2 (Homo sapiens, UniProt P07949).
T1 construct: fused on or other part: P10644 (cAMP-dependent protein kinase type I-alpha regulatory subunit)
T1 sequence (P07949 whole entry, change not shown, the tested form may be a part): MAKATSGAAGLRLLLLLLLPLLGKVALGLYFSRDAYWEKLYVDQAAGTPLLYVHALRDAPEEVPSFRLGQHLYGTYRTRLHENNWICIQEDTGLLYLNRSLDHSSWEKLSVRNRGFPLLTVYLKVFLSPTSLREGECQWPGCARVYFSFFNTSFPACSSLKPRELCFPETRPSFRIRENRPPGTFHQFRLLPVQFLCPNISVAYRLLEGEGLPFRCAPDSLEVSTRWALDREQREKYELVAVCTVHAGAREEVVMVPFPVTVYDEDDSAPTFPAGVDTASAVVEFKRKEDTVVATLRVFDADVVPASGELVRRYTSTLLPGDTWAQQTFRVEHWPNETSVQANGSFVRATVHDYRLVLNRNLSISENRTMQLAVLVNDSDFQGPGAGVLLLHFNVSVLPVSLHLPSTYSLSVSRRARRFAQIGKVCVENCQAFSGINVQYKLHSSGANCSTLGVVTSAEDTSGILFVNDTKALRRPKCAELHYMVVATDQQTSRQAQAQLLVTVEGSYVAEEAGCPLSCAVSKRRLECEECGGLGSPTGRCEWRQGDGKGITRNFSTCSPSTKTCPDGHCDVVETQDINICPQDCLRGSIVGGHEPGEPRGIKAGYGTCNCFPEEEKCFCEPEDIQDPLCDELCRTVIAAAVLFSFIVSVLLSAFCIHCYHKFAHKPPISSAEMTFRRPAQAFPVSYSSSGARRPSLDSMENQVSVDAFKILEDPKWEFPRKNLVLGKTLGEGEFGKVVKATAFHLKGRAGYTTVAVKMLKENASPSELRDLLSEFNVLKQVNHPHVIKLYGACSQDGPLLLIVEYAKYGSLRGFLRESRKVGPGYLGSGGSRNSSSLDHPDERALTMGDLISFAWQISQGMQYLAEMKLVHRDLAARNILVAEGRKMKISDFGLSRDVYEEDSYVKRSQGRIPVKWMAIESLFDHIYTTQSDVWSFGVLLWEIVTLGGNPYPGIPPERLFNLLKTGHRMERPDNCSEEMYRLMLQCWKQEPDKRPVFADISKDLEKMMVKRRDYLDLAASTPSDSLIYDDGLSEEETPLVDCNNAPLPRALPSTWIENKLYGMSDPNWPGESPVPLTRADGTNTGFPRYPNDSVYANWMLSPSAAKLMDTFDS
The experiment is described as follows: Tritiated thymidine uptake cell proliferation assay, BaF3 RET/PTC. Type of experiment: cell-based. The following applies: 3[H]-thymidine uptake, 72 h; read-out: BaF RET/PTC IC50. Here is the method: Inhibition of the Proliferation of RET-positive Cells
as §1
as §2, with “RET-PTC2,” for “bcr-abl, Abl-negative U937 cells,”, “RET-negative 11937” for “Bcr-abl positive LAMA-84”, “RET-negative” for “Abl-negative”, “^3[H]-thymidine” for “^3H-thymidine”

For experiment [4], the target named is T2, Recombinant Abl T315I protein (Homo sapiens, UniProt P00519, T315I).
T2 construct: made in house; host or cells: Sf9 cells (baculovirus)
The experiment is described as follows: Abl T315I mutant kinase inhibitory activity, ELISA-based in vitro kinase assay. Format: biochemical. The settings on record: purified Abl T315I, 0.3 mM ATP. The gist of the method:
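His-tagged human Abl T315I from Sf9 cells, preincubated 10 min at room temperature with inhibitor, then reacted on peptide-coated plates with 0.3 mM ATP, 1 mM MnCl2, 5 mM MgCl2 in 50 mM Tris pH 7.5. Phosphotyrosine detected by anti-pTyr/HRP ELISA at 450 nm; IC50 as 50% inhibition vs control.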
Background: ELISA stands for enzyme-linked immunosorbent assay.

The target in experiment [5] is T3, Recombinant ALK kinase (Homo sapiens, UniProt Q9UM73).
T3 construct: made in house; host or cells: Sf9 insect cells (baculovirus)
T3 sequence (Q9UM73 19-1620): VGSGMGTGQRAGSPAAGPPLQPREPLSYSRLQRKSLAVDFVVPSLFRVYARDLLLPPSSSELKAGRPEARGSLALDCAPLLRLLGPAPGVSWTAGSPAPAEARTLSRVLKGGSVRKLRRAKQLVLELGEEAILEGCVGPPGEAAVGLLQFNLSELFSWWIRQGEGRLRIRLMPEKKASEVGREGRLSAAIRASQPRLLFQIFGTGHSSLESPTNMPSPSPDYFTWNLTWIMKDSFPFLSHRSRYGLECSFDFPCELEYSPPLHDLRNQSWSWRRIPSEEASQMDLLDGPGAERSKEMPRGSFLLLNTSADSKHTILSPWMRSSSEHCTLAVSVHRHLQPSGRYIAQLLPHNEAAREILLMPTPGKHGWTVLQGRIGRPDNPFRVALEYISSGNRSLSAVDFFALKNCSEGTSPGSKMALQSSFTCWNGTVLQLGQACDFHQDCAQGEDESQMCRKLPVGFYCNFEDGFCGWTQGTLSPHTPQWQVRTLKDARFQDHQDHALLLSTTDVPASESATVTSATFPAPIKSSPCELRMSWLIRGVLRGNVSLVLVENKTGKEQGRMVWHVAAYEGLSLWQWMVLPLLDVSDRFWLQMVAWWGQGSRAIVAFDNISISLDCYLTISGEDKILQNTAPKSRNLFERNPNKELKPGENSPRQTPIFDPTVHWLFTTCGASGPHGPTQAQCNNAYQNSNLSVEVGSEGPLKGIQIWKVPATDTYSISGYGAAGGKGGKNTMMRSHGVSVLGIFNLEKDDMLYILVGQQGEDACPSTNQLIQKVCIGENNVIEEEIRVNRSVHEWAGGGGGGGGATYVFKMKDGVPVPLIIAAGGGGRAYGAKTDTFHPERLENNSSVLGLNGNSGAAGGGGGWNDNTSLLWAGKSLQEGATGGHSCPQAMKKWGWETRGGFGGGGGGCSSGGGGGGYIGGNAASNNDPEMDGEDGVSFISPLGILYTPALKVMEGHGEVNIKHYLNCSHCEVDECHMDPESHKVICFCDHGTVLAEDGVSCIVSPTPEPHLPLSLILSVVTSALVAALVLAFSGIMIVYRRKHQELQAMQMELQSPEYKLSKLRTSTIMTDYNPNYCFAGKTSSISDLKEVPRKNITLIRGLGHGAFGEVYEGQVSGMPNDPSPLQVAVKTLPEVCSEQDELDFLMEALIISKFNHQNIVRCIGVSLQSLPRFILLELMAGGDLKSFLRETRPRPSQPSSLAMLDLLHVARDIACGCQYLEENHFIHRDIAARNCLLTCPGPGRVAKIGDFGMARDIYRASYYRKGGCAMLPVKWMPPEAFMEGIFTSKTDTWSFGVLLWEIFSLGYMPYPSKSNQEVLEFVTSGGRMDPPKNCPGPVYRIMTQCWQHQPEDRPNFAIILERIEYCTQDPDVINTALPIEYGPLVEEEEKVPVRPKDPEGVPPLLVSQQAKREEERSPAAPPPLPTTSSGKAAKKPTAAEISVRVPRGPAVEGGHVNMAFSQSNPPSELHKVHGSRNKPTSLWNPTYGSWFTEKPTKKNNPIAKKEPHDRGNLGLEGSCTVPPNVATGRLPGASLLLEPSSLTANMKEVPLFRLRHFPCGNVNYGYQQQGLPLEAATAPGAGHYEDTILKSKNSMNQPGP
The experiment is described as follows: ALK kinase inhibitory activity, ELISA-based in vitro kinase assay. Format: biochemical. The settings on record: purified rALK, 0.3 mM ATP, read-out: ALK IC50. In a few lines: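 Sf9-expressed, purified recombinant ALK phosphorylated a plate-coated peptide substrate with 0.3 mM ATP, Mn2+/Mg2+, pH 7.5, 15 min at 30° C, after 10 min inhibitor preincubation. Phosphotyrosine was detected by anti-pTyr ELISA (TMB, A450); IC50 in μM is the concentration giving 50% inhibition relative to control.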

Experiment [6] deals with T4, BaF3 cells transformed with the oncogenic fusion protein NPM/ALK (Homo sapiens, UniProt Q9UM73).
T4 construct: fused on or other part: P06748 (Nucleophosmin)
T4 sequence (Q9UM73 whole entry, change not shown, the tested form may be a part): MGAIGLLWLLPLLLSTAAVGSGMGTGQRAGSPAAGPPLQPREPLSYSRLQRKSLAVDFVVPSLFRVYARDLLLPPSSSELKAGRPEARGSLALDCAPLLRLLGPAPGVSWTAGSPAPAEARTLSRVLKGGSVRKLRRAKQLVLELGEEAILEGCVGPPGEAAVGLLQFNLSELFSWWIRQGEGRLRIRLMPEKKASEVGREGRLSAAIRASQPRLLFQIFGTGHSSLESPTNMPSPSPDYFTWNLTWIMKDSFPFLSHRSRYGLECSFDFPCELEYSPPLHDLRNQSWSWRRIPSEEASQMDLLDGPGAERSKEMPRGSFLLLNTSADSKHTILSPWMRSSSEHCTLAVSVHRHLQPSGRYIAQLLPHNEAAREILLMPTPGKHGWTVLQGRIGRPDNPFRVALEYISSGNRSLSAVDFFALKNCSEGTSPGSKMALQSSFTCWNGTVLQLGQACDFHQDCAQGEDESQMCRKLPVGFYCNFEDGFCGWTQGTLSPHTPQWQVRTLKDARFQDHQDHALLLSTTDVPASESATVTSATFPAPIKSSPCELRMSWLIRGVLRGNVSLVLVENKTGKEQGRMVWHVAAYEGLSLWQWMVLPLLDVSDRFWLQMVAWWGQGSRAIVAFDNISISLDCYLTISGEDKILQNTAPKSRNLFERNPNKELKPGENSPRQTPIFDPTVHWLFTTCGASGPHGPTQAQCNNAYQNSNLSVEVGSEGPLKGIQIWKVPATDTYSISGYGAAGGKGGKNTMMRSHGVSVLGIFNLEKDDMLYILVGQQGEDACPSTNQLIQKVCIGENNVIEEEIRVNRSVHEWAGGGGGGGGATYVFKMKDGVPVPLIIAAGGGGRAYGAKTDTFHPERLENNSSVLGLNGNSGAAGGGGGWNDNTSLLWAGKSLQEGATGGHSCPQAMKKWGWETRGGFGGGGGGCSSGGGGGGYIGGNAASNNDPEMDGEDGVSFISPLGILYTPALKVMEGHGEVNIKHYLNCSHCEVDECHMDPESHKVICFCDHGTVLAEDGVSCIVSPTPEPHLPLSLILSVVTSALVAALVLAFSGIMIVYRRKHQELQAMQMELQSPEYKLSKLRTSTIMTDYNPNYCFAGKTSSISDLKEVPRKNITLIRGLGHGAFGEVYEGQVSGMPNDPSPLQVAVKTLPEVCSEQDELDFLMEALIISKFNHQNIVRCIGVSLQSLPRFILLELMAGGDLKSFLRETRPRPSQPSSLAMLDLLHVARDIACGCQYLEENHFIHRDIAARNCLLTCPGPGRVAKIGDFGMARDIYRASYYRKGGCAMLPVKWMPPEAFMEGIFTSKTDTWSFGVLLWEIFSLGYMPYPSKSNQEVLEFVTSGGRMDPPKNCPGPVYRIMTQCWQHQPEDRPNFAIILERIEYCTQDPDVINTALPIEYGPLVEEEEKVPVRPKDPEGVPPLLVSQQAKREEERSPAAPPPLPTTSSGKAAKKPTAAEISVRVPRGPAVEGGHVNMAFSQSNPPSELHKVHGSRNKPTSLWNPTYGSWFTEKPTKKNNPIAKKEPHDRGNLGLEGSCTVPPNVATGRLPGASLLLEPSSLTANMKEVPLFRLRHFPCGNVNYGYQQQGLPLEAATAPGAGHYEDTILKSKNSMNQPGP
Kind of experiment: Tritiated thymidine uptake cell proliferation assay, BaF3 NPM/ALK. Type of experiment: cell-based. The settings on record: 3[H]-thymidine uptake, 72 h; read-out: BaF NPM/ALK IC50. In a few lines:
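Cells were seeded at 10 000/well with serial inhibitor dilutions or DMSO vehicle and incubated 72 h at 37 °C, with ^3[H]-thymidine (1 μCi/well) added for the final 16 h. Incorporation was read by β scintillation counting. IC50 (μM) is the concentration giving a 50% decrease in uptake versus controls.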

Experiment [7] addresses T5, Recombinant Ret protein (Homo sapiens, UniProt P07949).
T5 construct: made in house; host or cells: Sf9 cells (baculovirus)
Kind of experiment: RET kinase inhibitory activity, ELISA-based in vitro kinase assay. The following applies: purified Ret, 0.3 mM ATP. Format: biochemical.

In experiment [8] the test system is NPM/ALK positive KARPAS-299 cells. The experiment is described as follows: Tritiated thymidine uptake cell proliferation assay, KARPAS-299. The following applies: 3[H]-thymidine uptake, 72 h, read-out: K299 (NPM/ALK+) IC50. Format: cell-based. Here is the method: Inhibition of the proliferation of NPM/ALK positive cells
as §1
as §2, with “NPM/ALK, NPM/ALK positive SUDHL-1 cells, ALK-negative” for “bcr-abl, Abl-negative”, “NPM/ALK” for “or Bcr-abl”, “KARPAS-299” for “LAMA-84”, “Alk-negative” for “Abl-negative”, “^3[H]-thymidine” for “^3H-thymidine”

SMILES strings stand for the structures.

As to `CN1CCN(Cc2ccc(C(=O)Nc3nc(-c4ccc5[nH]c6ncccc6c5c4)cs3)cc2)CC1` [R222], the GI50 in experiment [1] came to 2.5 µM; in experiment [3] it was 1.6 µM; in experiment [6], 1.5 µM. Further, the IC50 in experiment [2] is 1.5 µM; in experiment [4], > 100 µM; in experiment [5], 88 ± 4.3 µM; in experiment [7], 8.8 ± 1.6 µM.
In the case of `O=C(CBr)c1ccc2[nH]c3ncccc3c2c1` [R228], the GI50 stood at 18 µM in experiment [1], 11 µM in experiment [3] and 8 µM in experiment [6]. The values for the IC50 in experiment [2], in experiment [4] and in experiment [7] were 13 µM, 13 ± 4.6 µM and 16 µM, respectively.
On to `Clc1cnc2[nH]c3ccc(Br)cc3c2c1` [R252, 6-bromo-3-chloro-9H-pyrido[2,3-b]indole], for which the GI50 in experiment [1] and in experiment [6] was > 20 µM each time. The IC50 was > 20 µM in experiment [2], 1.7 ± 0.4 µM in experiment [5] and > 20 µM in experiment [8].
